Laboratory results from PubChem BioAssay AID256 (DTP/NCI, 2004).
“And” between values parts separate entries of the source, which are not always exact repeats. Equal values may be shown once. Toxic doses and inconclusive results are not listed. How the source made its calls: active means survival T/C of 150% or more; inactive means T/C below 125% in these data.

Tested on: CD2F1 mice, L1210 leukemia ip, survival T/C
Experiment: NCI In Vivo Anticancer Drug Screen. Data for tumor model L1210 Leukemia (intraperitoneal) in CD2F1 (CDF1) mice
Conditions: higher = longer survival
Summary of the method: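 Vehicle-treated tumor-bearing mice served as controls (C) for compound-treated mice (T). Reported figure is T divided by C.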

[1] = endpoint: mean survival time, dose: 100.0 mg/kg/injection, schedule: Q01DX001 (ip), vehicle: saline
[2] = endpoint: mean survival time, dose: 100.0 mg/kg/injection, schedule: Q04DX003 (ip), vehicle: saline with Tween-80
[3] = endpoint: mean survival time, dose: 200.0 mg/kg/injection, schedule: Q04DX003 (ip), vehicle: saline with Tween-80
[4] = endpoint: mean survival time, dose: 400.0 mg/kg/injection, schedule: Q04DX003 (ip), vehicle: saline with Tween-80
[5] = endpoint: mean survival time, dose: 100.0 mg/kg/injection, schedule: Q01DX009 (ip), vehicle: saline
[6] = endpoint: mean survival time, dose: 100.0 mg/kg/injection, schedule: Q01DX001 (ip), vehicle: saline with Tween-80
[7] = endpoint: mean survival time, dose: 50.0 mg/kg/injection, schedule: Q01DX009 (ip), vehicle: Klucel (hydroxypropylcellulose) (HPC)
[8] = endpoint: mean survival time, dose: 100.0 mg/kg/injection, schedule: Q01DX009 (ip), vehicle: Klucel (hydroxypropylcellulose) (HPC)
[9] = endpoint: mean survival time, dose: 200.0 mg/kg/injection, schedule: Q01DX009 (ip), vehicle: Klucel (hydroxypropylcellulose) (HPC)
[10] = endpoint: mean survival time, dose: 100.0 mg/kg/injection, schedule: Q01DX009 (ip), vehicle: saline with Tween-80
[11] = endpoint: mean survival time, dose: 200.0 mg/kg/injection, schedule: Q01DX009 (ip), vehicle: saline with Tween-80
[12] = endpoint: mean survival time, dose: 400.0 mg/kg/injection, schedule: Q01DX009 (ip), vehicle: saline with Tween-80
[13] = endpoint: mean survival time, dose: 100.0 mg/kg/injection, schedule: Q04DX003 (ip), vehicle: saline
[14] = endpoint: mean survival time, dose: 200.0 mg/kg/injection, schedule: Q04DX003 (ip), vehicle: saline
[15] = endpoint: mean survival time, dose: 400.0 mg/kg/injection, schedule: Q04DX003 (ip), vehicle: saline

Measured: T/C

CCCCNCCC(SSSC(CCNCCCC)c1ccc(Cl)cc1)c1ccc(Cl)cc1 (stereo not drawn)
inactive: endpoint: mean survival time, dose: 6.25 mg/kg/injection, schedule: Q01DX009 (ip), vehicle: saline with Tween-80 101 % of control | endpoint: mean survival time, dose: 12.5 mg/kg/injection, schedule: Q01DX009 (ip), vehicle: saline with Tween-80 95 % of control | endpoint: mean survival time, dose: 25.0 mg/kg/injection, schedule: Q01DX009 (ip), vehicle: saline with Tween-80 95 % of control

O=C(C[n+]1ccccc1)c1ccccc1
inactive: endpoint: mean survival time, dose: 25.0 mg/kg/injection, schedule: Q01DX001 (ip), vehicle: saline 102 % of control | endpoint: mean survival time, dose: 50.0 mg/kg/injection, schedule: Q01DX001 (ip), vehicle: saline 106 % of control | [1] 96 % of control and 97 % of control | endpoint: mean survival time, dose: 100.0 mg/kg/injection, schedule: Q04DX002 (ip), vehicle: saline with Tween-80 96 % of control

O=C1c2ccccc2C(=O)N1c1ccccc1-c1ccccc1
inactive: [2] 100 % of control | [3] 92 % of control | [4] 100 % of control

N=C(N)SSC(=N)N
inactive: endpoint: mean survival time, dose: 50.0 mg/kg/injection, schedule: Q01DX009 (ip), vehicle: saline 96 % of control | [5] 100 % of control

NC(=O)c1n[nH]c(C2CC(O)C(CO)O2)n1 (stereo not drawn)
inactive: endpoint: mean survival time, dose: 12.5 mg/kg/injection, schedule: Q01DX005 (ip), vehicle: water 96 % of control | endpoint: mean survival time, dose: 25.0 mg/kg/injection, schedule: Q01DX005 (ip), vehicle: water 91 % of control | endpoint: mean survival time, dose: 50.0 mg/kg/injection, schedule: Q01DX005 (ip), vehicle: water 92 % of control | endpoint: mean survival time, dose: 100.0 mg/kg/injection, schedule: Q01DX005 (ip), vehicle: water 96 % of control | endpoint: mean survival time, dose: 200.0 mg/kg/injection, schedule: Q01DX005 (ip), vehicle: water 94 % of control

COc1ccc(N=C(C(=O)c2ccccc2)c2ccccc2)cc1
inactive: [6] 95 % of control | endpoint: mean survival time, dose: 200.0 mg/kg/injection, schedule: Q01DX001 (ip), vehicle: saline with Tween-80 93 % of control | endpoint: mean survival time, dose: 400.0 mg/kg/injection, schedule: Q01DX001 (ip), vehicle: saline with Tween-80 100 % of control

Cn1c(CC(O)c2nc3ccccc3n2C)nc2ccccc21 (stereo not drawn)
inactive: [7] 97 % of control | [8] 101 % of control | [9] 120 % of control

O=S(=O)(O)C(O)c1cccnc1 (stereo not drawn)
inactive: [10] 98 % of control | endpoint: mean survival time, dose: 100.0 mg/kg/injection, schedule: Q04DX003 (ip), vehicle: saline sonified 95 % of control | [11] 96 % of control | endpoint: mean survival time, dose: 200.0 mg/kg/injection, schedule: Q04DX003 (ip), vehicle: saline sonified 105 % of control | [12] 95 % of control | endpoint: mean survival time, dose: 400.0 mg/kg/injection, schedule: Q04DX003 (ip), vehicle: saline sonified 89 % of control

OCC(O)C(O)C(O)C(O)C(O)CO (stereo not drawn)
inactive: [7] 98 % of control | [8] 102 % of control | [5] 98 % of control | endpoint: mean survival time, dose: 100.0 mg/kg/injection, schedule: Q04DX002 (ip), vehicle: saline 100 % of control | [9] 98 % of control | endpoint: mean survival time, dose: 200.0 mg/kg/injection, schedule: Q01DX009 (ip), vehicle: saline 91 % of control | endpoint: mean survival time, dose: 200.0 mg/kg/injection, schedule: Q04DX002 (ip), vehicle: saline 107 % of control | endpoint: mean survival time, dose: 400.0 mg/kg/injection, schedule: Q01DX009 (ip), vehicle: saline 102 % of control | endpoint: mean survival time, dose: 400.0 mg/kg/injection, schedule: Q04DX002 (ip), vehicle: saline 96 % of control

O=N/C=C/C(=N/Nc1ccc(C(=O)O)cc1)[N+](=O)[O-]
inactive: [13] 96 % of control | [14] 96 % of control | [15] 90 % of control

CCCCOS(=O)(=O)c1ccc(N)cc1
inactive: [2] 92 % of control | [3] 98 % of control | [4] 97 % of control

CC(=O)NCC1CCN(C(C)=O)CC1
inactive: [13] 94 % of control | [14] 96 % of control | [15] 96 % of control

CCOC(=O)CCC(N)C(=O)OCC (stereo not drawn)
inactive: [1] 95 % of control | endpoint: mean survival time, dose: 200.0 mg/kg/injection, schedule: Q01DX001 (ip), vehicle: saline 88 % of control | endpoint: mean survival time, dose: 400.0 mg/kg/injection, schedule: Q01DX001 (ip), vehicle: saline 93 % of control

C(=NC1CCCCC1)c1c[nH]c2ccccc12
inactive: [10] 87 % of control | [2] 91 % of control | [11] 89 % of control | [3] 91 % of control | [4] 98 % of control

S=C(NCNC(=S)c1ccncc1)c1ccncc1
inactive: endpoint: median survival time, dose: 25.0 mg/kg/injection, schedule: Q01DX009 (ip), vehicle: saline with Tween-80 102 % of control | endpoint: median survival time, dose: 50.0 mg/kg/injection, schedule: Q01DX009 (ip), vehicle: saline with Tween-80 103 % of control | endpoint: median survival time, dose: 100.0 mg/kg/injection, schedule: Q01DX009 (ip), vehicle: saline with Tween-80 106 % of control | endpoint: median survival time, dose: 200.0 mg/kg/injection, schedule: Q01DX009 (ip), vehicle: saline with Tween-80 104 % of control | endpoint: median survival time, dose: 400.0 mg/kg/injection, schedule: Q01DX009 (ip), vehicle: saline with Tween-80 104 % of control

O=C1CC[C@H](NC(=O)OCc2ccccc2)C(=O)O1
inactive: [10] 88 % of control | [11] 90 % of control | [12] 88 % of control

O=Cc1cc(Cl)cc(Cl)c1O.O=Cc1cc(Cl)cc(Cl)c1O.[Co]
inactive: endpoint: mean survival time, dose: 50.0 mg/kg/injection, schedule: Q04DX003 (ip), vehicle: saline with Tween-80 90 % of control | endpoint: mean survival time, dose: 50.0 mg/kg/injection, schedule: Q04DX003 (ip), vehicle: saline 100 % of control | [2] 89 % of control | [13] 96 % of control | [3] 94 % of control | [14] 100 % of control | [4] 103 % of control | [15] 96 % of control

NC(=O)c1cc(=O)[nH]o1
inactive: [10] 102 % of control | [11] 96 % of control | [12] 107 % of control

[CH3][Sn]1([CH3])[O]C2C(CO)OC(n3ccc4c(N)ncnc43)C2[O]1 (stereo not drawn)
inactive: endpoint: mean survival time, dose: 0.78 mg/kg/injection, schedule: Q01DX005 (ip), vehicle: other 111 % of control | endpoint: mean survival time, dose: 1.56 mg/kg/injection, schedule: Q01DX005 (ip), vehicle: other 107 % of control | endpoint: mean survival time, dose: 3.13 mg/kg/injection, schedule: Q01DX005 (ip), vehicle: other 115 % of control

CCCCCOc1nccc(N)n1
inactive: [6] 98 % of control

Nc1ccc(-c2ccc(N)cc2O)c(O)c1
inactive: endpoint: mean survival time, dose: 50.0 mg/kg/injection, schedule: Q01DX009 (ip), vehicle: saline with Tween-80 98 % of control | [10] 95 % of control

COc1nc(C(Cl)(Cl)Cl)c(Cl)c(OC)c1Cl
inactive: endpoint: median survival time, dose: 12.5 mg/kg/injection, schedule: Q01DX009 (ip), vehicle: Klucel (hydroxypropylcellulose) (HPC) 108 % of control | endpoint: median survival time, dose: 25.0 mg/kg/injection, schedule: Q01DX009 (ip), vehicle: Klucel (hydroxypropylcellulose) (HPC) 98 % of control and 103 % of control | endpoint: median survival time, dose: 50.0 mg/kg/injection, schedule: Q01DX005 (ip), vehicle: Klucel (hydroxypropylcellulose) (HPC) 105 % of control and 112 % of control | endpoint: median survival time, dose: 50.0 mg/kg/injection, schedule: Q01DX009 (ip), vehicle: Klucel (hydroxypropylcellulose) (HPC) 106 % of control and 107 % of control | endpoint: median survival time, dose: 67.0 mg/kg/injection, schedule: Q01DX005 (ip), vehicle: Klucel (hydroxypropylcellulose) (HPC) 119 % of control and 102 % of control | endpoint: median survival time, dose: 90.0 mg/kg/injection, schedule: Q01DX005 (ip), vehicle: Klucel (hydroxypropylcellulose) (HPC) 105 % of control | endpoint: median survival time, dose: 120.0 mg/kg/injection, schedule: Q01DX005 (ip), vehicle: Klucel (hydroxypropylcellulose) (HPC) 113 % of control | endpoint: median survival time, dose: 200.0 mg/kg/injection, schedule: Q01DX009 (ip), vehicle: Klucel (hydroxypropylcellulose) (HPC) 115 % of control and 120 % of control
